The text below walks through data of the Kinase Knowledgebase extract (Sharma et al. 2016).

Holding throughout (assay): Enzyme Assay
Assay [1] concerns the target PIK3CD (Human) (UniProt O00329).
Assay [2] concerns the target PIK3CG (human) (UniProt P48736).
Assay [3] concerns the target PIK3CA (human) (UniProt P42336).
Assay [4] deals with PIK3CB (Human) (UniProt P42338).
Chain of PIK3CB (Human) (P42338 whole entry, looked up): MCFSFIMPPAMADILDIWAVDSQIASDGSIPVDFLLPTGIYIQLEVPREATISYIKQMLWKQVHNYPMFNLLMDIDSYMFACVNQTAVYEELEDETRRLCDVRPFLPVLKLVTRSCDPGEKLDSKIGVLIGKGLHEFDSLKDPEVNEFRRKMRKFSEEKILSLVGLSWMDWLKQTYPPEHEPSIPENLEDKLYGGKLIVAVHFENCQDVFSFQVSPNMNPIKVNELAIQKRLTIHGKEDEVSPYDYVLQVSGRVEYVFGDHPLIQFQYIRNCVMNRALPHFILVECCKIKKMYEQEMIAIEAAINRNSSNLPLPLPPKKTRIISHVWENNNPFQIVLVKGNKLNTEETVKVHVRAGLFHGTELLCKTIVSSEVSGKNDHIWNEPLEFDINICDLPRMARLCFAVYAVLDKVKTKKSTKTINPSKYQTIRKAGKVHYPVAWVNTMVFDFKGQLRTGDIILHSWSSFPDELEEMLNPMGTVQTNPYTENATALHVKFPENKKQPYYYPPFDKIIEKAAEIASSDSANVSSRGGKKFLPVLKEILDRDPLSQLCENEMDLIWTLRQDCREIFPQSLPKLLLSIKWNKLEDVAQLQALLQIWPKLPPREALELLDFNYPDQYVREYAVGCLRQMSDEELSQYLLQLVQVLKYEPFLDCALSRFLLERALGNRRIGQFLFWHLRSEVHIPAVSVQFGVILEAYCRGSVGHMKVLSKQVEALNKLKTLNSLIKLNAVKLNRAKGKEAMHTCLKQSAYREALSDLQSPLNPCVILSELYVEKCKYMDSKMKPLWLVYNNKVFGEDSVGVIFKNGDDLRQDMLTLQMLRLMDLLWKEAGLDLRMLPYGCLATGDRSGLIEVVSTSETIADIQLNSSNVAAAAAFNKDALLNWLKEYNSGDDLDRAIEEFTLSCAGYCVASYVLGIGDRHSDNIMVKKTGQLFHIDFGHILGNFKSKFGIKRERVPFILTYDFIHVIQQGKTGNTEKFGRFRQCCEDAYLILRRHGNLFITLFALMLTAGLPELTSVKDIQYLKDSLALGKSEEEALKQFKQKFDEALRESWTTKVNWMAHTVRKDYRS

Chain of PIK3CA (human) (P42336 whole entry, looked up): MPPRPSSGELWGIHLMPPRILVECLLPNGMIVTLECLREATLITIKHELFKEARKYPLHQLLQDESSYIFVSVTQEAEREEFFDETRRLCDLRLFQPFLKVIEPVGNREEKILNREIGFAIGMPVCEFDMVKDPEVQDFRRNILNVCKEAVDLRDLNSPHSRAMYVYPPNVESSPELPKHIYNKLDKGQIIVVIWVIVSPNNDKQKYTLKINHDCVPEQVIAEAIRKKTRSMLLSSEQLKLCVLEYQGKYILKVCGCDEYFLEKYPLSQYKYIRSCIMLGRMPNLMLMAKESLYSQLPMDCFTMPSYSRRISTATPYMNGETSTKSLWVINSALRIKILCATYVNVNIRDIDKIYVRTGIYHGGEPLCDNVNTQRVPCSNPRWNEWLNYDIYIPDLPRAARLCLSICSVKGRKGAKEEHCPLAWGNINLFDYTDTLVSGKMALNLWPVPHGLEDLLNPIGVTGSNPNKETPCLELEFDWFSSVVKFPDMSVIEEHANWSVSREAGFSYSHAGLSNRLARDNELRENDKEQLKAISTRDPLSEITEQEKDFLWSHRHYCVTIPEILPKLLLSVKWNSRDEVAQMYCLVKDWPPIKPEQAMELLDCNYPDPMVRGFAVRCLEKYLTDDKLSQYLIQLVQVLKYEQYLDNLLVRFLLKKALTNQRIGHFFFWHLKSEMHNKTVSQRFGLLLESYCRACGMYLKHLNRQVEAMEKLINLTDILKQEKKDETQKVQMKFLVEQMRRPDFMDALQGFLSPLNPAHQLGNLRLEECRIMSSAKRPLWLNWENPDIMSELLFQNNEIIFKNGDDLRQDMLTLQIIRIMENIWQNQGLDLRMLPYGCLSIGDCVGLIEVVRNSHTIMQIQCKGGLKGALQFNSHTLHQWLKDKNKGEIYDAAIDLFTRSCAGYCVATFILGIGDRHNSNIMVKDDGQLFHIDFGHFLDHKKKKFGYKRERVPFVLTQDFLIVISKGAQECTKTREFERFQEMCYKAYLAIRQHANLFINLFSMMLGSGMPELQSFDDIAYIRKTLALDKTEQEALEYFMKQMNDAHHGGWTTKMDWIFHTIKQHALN
Chain of PIK3CG (human) (P48736 whole entry, looked up): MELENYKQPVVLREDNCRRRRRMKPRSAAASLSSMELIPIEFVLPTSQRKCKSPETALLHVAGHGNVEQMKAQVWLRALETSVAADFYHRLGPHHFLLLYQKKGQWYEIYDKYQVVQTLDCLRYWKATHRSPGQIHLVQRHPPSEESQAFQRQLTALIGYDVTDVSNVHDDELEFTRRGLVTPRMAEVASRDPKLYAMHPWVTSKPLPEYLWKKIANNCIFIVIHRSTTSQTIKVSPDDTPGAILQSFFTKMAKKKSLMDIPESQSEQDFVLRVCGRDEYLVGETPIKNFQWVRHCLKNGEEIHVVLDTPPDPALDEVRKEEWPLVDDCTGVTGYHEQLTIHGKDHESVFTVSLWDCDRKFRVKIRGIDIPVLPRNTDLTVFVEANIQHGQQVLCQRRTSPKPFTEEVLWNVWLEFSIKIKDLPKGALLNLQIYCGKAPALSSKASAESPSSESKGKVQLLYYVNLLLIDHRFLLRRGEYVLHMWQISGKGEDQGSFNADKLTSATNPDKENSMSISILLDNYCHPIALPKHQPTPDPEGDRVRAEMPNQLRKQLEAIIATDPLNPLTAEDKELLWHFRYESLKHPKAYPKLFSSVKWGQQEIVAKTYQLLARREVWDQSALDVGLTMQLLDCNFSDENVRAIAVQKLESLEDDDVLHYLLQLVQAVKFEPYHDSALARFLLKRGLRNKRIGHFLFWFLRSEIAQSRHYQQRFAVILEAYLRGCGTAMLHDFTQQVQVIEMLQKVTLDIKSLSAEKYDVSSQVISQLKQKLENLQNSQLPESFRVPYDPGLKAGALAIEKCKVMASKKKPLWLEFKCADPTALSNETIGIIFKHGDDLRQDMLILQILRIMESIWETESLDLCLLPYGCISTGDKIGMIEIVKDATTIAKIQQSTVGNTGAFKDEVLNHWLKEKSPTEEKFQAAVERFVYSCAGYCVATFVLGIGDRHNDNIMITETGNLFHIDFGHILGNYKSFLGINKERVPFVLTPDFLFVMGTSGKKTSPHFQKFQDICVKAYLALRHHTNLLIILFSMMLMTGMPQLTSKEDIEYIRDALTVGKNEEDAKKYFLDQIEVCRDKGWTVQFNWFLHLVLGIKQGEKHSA
Chain of PIK3CD (Human) (O00329 whole entry, looked up): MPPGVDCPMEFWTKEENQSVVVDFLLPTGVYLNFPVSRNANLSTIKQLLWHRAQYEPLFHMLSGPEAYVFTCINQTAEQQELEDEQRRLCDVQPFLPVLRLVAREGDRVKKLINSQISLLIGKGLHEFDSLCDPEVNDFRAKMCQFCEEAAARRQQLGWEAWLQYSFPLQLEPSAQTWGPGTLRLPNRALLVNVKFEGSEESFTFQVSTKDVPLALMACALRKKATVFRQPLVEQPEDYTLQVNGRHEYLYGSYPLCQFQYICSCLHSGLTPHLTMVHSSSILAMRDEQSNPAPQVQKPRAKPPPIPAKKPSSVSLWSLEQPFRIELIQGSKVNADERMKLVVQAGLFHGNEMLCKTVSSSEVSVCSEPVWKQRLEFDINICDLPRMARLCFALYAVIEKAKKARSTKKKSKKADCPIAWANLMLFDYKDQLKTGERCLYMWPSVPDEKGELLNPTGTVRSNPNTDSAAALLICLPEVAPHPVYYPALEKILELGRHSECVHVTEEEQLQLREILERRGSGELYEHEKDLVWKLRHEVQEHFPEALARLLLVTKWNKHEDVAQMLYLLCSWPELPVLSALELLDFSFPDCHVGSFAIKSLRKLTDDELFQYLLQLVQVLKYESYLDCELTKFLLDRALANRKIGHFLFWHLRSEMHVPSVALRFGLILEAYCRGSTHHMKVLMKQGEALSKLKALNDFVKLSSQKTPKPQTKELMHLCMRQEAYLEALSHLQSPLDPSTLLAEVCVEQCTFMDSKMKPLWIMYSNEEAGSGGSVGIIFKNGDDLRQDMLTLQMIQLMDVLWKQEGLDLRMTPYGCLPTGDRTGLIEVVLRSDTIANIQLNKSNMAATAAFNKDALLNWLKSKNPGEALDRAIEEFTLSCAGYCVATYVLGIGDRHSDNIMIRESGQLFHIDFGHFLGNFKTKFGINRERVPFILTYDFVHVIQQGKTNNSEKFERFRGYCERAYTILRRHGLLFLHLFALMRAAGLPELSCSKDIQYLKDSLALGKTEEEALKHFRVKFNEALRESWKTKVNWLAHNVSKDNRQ

The term IC50 denotes the point on the concentration scale where inhibition reaches its midpoint. A lower IC50 goes with greater potency in that assay. Turning to `Cc1cccc2cc(C(C)Nc3ncnc4[nH]cnc34)n(-c3cccc(F)c3)c(=O)c12` (stereo unspecified), the IC50 was under 100 nM in assay [1] and 100 to 1000 nM in assay [2].

Take `Cc1ccccc1-n1c(Cn2nc(-c3ccc4sc(N)nc4c3)c3c(N)ncnc32)cc2cccc(C)c2c1=O`: the IC50 in assay [3] is 100 to 1000 nM; in assay [4] it was 100 to 1000 nM; in assay [1] it was under 100 nM.

As to `Cc1cccc2cc(Cn3nc(I)c4c(N)ncnc43)n(C3CCCCC3)c(=O)c12`, the IC50 in assay [3] is over 10000 nM; in assay [4] it was over 10000 nM; in assay [1] it was 100 to 1000 nM.

As for `Cc1cccc2cc(Cn3nc(-c4ccc5oc(N)nc5c4)c4c(N)ncnc43)n(C3CC3)c(=O)c12`, the figures for the IC50 in assay [3], in assay [4] and in assay [1] were under 100 nM, 100 to 1000 nM and under 100 nM, respectively.

Turning to `Cc1cccnc1-n1c(Cn2nc(C#C[C@@H](C)O)c3c(N)ncnc32)cc2cccc(C)c2c1=O`, the IC50 in assay [3] is over 10000 nM; in assay [4], over 10000 nM; in assay [1] it was 100 to 1000 nM.

In the case of `Cc1cccc2cc([C@H](C)Nc3cc(N)nc(Cl)n3)n(C3CC3)c(=O)c12`, the IC50 in assay [3], in assay [4] and in assay [1] was over 10000 nM each time.

Turning to `CCC(Nc1ncnc2[nH]cnc12)c1cc2cccc(C)c2c(=O)n1-c1cc(F)cc(F)c1` (stereo unspecified), the IC50 in assay [3] was over 10000 nM; in assay [4], over 10000 nM; in assay [1], under 100 nM.

In the case of `Cc1cccc2cc([C@H](C)Nc3ncnc4[nH]cc(Br)c34)n(-c3ccccc3)c(=O)c12`, the values for the IC50 in assay [3], in assay [4] and in assay [1] were 100 to 1000 nM, under 100 nM and under 100 nM, respectively.

On to `Cc1cccc2cc([C@H](C)Nc3ncnc4[nH]cnc34)n(-c3cccc(F)c3)c(=O)c12`, for which the values for the 50% inhibitory concentration (IC50) in assay [3], in assay [4] and in assay [1] were over 10000 nM, 100 to 1000 nM and under 100 nM, respectively.

In turn, `Cc1cccc2cc(Cn3nc(I)c4c(N)ncnc43)n(-c3ccccc3F)c(=O)c12` yielded an IC50 in assay [2] of 100 to 1000 nM.

In the case of `Cc1cccc2cc(Cn3nc(I)c4c(N)ncnc43)n(C)c(=O)c12`, the IC50 in assay [3] was over 10000 nM; in assay [4], over 10000 nM; in assay [1], 100 to 1000 nM.

On to `Cc1cccc2cc([C@H](C)Nc3nc(N)ncc3C(N)=O)n(C3CC3)c(=O)c12`, for which the IC50 in assay [3], in assay [4] and in assay [1] was over 10000 nM each time.

As for `CCC(Nc1ncnc2[nH]cnc12)c1cc2ccccc2c(=O)n1-c1ccccc1` (stereo unspecified), the IC50 in assay [3] was over 10000 nM; in assay [4] it was over 10000 nM; in assay [1], under 100 nM.

In assay [2], `Cc1cccc2cc(Cn3nc(-c4cc(O)cc(F)c4)c4c(N)ncnc43)n(-c3ccccc3OCCN3CCOCC3)c(=O)c12` showed an IC50 of 100 to 1000 nM.

On to `Cc1cccc2cc(Cn3nc(-c4cn[nH]c4)c4c(N)ncnc43)n(-c3ccccc3F)c(=O)c12`, for which the IC50 in assay [3] was over 10000 nM; in assay [2], 100 to 1000 nM.

As to `Cc1cccc2cc(Cn3nc(-c4ccc(O)c(F)c4)c4c(N)ncnc43)n(-c3ccccc3F)c(=O)c12`, the IC50 in assay [3] is over 10000 nM; in assay [4], over 10000 nM; in assay [1], 100 to 1000 nM.

`Cc1cccc2cc(Cn3nc(-c4ccc(O)cc4)c4c(N)ncnc43)n(-c3ccccc3F)c(=O)c12` returned a 50% inhibitory concentration (IC50) in assay [2] of 100 to 1000 nM.

In the case of `Cc1ccccc1-n1c(Cn2nc(-c3cccc(O)c3)c3c(N)ncnc32)cc2ccccc2c1=O`, the IC50 was over 10000 nM in assay [3] and 100 to 1000 nM in assay [2].

`Cc1cccc2cc([C@H](C)Nc3nc(N)nc4[nH]cnc34)n(-c3ccccc3)c(=O)c12`: the IC50 in assay [3] was 100 to 1000 nM; in assay [4], under 100 nM; in assay [1], under 100 nM.

For `Cc1cccc2cc([C@H](C)Nc3ncnc4[nH]c(O)nc34)n(-c3ccccc3)c(=O)c12`, the IC50 in assay [3], in assay [4] and in assay [1] was over 10000 nM throughout.

Regarding `Cc1ccccc1-n1c(Cn2nc(I)c3c(N)ncnc32)cc2cccc(F)c2c1=O`, the IC50 was over 10000 nM in assay [3], over 10000 nM in assay [4] and 100 to 1000 nM in assay [1].

Regarding `Cc1cccc2cc([C@H](C)Nc3ncnc4[nH]cc(C#N)c34)n(-c3ccccc3)c(=O)c12`, the IC50 in assay [3] is 100 to 1000 nM; in assay [4] it was under 100 nM; in assay [1] it was under 100 nM.

As to `Cc1cccc2cc([C@H](C)Nc3ncnc4[nH]cc(C(N)=O)c34)n(C3CC3)c(=O)c12`, the results for the IC50 in assay [3], in assay [4] and in assay [1] were 100 to 1000 nM, under 100 nM and under 100 nM, respectively.

With `Cc1cccc2cc(Cn3nc(-c4cccc(O)c4)c4c(N)ncnc43)n(C3CCCC3)c(=O)c12`, the IC50 in assay [3] was over 10000 nM; in assay [2], 100 to 1000 nM.

For `Cc1cccc2cc([C@H](C)Nc3ncnc4[nH]cc(Cl)c34)n(-c3ccccc3)c(=O)c12`, the IC50 in assay [3] was 100 to 1000 nM; in assay [4], under 100 nM; in assay [1], under 100 nM.

Consider `Cc1cccc2cc([C@H](C)Nc3ncnc4[nH]c(Cl)nc34)n(-c3ccccc3)c(=O)c12`, for which the IC50 in assay [3], in assay [4] and in assay [1] was over 10000 nM each time.

Regarding `Cc1cccc2cc(Cn3nc(-c4ccc5nc(N)sc5c4)c4c(N)ncnc43)n(-c3ccccc3)c(=O)c12`, the concentration for half-maximal inhibition (IC50) is under 100 nM in assay [3], 100 to 1000 nM in assay [4] and under 100 nM in assay [1].
